In ChEMBL document CHEMBL5252509, “In depth analysis of kinase cross screening data to identify chemical starting points for inhibition of the Nek family of kinases” (Medchemcomm, 2018):

Legend:
[1] = target: T1, Serine/threonine-protein kinase Nek11 (Homo sapiens) (UniProt Q8NG66); assay: Inhibition of NEK11 (unknown origin) at 1 uM relative to control
T1 sequence (whole entry): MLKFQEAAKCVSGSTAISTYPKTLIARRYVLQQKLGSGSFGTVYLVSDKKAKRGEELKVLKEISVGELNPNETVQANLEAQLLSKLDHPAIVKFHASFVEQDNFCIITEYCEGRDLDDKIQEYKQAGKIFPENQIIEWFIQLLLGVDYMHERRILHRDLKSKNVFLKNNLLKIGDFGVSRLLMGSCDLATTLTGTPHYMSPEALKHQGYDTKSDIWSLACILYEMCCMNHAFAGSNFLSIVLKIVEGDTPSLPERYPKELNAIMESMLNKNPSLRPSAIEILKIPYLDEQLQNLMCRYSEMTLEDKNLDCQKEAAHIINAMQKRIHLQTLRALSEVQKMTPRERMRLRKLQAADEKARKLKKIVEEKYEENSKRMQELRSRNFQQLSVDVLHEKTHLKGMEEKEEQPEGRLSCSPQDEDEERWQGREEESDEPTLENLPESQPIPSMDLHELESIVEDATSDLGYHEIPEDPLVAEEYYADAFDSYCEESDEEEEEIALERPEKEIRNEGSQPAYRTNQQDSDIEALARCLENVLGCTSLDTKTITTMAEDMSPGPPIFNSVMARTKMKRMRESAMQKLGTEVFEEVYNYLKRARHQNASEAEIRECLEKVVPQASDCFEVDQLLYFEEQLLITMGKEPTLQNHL

[2] = target: T2, Serine/threonine-protein kinase Nek2 (Homo sapiens) (UniProt P51955); assay: Inhibition of NEK2 (unknown origin) at 1 uM relative to control
T2 sequence (whole entry): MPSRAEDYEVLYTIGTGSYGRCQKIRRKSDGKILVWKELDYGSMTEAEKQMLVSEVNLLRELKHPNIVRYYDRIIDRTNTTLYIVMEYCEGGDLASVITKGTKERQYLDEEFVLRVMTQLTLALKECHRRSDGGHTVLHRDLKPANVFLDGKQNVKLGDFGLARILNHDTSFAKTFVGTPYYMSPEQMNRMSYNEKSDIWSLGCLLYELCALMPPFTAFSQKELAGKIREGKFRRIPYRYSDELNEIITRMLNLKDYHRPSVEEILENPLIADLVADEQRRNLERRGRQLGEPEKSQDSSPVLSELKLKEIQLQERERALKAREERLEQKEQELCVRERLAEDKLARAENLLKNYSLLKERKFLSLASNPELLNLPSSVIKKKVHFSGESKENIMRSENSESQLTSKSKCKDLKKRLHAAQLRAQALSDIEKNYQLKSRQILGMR

[3] = target: T3, Serine/threonine-protein kinase Nek9 (Homo sapiens) (UniProt Q8TD19); assay: Inhibition of NEK9 (unknown origin) at 1 uM relative to control
T3 sequence (whole entry): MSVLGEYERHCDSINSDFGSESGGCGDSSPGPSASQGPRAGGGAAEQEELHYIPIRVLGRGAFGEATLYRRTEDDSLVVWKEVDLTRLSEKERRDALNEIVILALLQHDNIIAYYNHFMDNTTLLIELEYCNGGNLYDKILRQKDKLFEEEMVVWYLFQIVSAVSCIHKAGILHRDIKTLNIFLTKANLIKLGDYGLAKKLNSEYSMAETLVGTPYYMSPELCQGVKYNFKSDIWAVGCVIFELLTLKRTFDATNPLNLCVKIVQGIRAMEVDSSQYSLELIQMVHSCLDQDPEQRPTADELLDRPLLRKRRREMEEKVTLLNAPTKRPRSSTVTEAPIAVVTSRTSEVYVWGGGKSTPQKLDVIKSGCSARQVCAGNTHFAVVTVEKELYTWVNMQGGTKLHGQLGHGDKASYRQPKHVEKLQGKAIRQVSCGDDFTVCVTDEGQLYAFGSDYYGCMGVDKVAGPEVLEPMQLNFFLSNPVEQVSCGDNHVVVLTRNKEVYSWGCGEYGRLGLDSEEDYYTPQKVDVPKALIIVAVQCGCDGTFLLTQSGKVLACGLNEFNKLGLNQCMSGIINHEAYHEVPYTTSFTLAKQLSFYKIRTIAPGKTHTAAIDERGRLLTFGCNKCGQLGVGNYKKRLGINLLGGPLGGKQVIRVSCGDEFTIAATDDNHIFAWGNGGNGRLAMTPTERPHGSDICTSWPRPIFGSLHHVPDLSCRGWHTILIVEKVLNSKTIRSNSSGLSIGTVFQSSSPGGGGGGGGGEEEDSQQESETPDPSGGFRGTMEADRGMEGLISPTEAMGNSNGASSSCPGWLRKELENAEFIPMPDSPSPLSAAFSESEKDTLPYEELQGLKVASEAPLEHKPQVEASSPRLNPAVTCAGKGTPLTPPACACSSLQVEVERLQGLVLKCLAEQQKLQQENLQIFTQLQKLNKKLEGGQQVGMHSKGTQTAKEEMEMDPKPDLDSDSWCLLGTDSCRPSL

[4] = target: Serine/threonine-protein kinase Nek7 (Homo sapiens) (UniProt Q8TDX7); assay: Inhibition of NEK7 (unknown origin) at 1 uM relative to control
[5] = target: T4, Serine/threonine-protein kinase Nek5 (Homo sapiens) (UniProt Q6P3R8); assay: Inhibition of NEK5 (unknown origin) at 1 uM relative to control
T4 sequence (whole entry): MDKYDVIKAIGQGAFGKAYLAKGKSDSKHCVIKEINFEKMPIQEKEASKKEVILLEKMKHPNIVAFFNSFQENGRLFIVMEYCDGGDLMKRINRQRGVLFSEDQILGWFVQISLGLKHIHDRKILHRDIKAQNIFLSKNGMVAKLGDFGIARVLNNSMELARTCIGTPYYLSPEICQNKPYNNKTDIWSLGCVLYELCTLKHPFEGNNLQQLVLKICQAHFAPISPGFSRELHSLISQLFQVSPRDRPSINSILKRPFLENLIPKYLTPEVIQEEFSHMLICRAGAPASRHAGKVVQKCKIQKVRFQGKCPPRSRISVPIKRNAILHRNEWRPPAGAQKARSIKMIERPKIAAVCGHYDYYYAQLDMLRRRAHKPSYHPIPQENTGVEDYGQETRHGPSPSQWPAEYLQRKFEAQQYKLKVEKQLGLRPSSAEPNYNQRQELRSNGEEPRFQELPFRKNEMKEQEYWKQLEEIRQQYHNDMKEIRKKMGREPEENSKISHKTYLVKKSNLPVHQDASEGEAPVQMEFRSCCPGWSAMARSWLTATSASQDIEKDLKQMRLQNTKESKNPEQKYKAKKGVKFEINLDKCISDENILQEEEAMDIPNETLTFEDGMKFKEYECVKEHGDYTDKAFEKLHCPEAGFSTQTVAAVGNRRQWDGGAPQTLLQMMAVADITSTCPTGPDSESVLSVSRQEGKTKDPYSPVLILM

Chain of Serine/threonine-protein kinase Nek7 (Homo sapiens) (Q8TDX7 whole entry, looked up): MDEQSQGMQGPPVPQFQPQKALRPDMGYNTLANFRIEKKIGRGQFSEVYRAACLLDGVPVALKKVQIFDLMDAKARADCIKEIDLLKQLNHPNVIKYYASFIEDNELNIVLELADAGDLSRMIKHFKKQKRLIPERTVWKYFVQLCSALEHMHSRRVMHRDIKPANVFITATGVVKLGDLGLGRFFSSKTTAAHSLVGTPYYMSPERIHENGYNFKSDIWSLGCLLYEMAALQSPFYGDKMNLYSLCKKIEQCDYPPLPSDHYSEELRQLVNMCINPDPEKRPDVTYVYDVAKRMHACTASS

| SMILES | inhibition [1] | inhibition [2] | inhibition [3] | inhibition [4] | inhibition [5] |
| --- | --- | --- | --- | --- | --- |
| Cc1ccc(CC(=O)N2CCc3cc(-c4cn(C)c5ncnc(N)c45)ccc32)cc1 | 59% | 96.9% | 20% | 0% | 45% |
| Cn1cc(-c2ccc3c(c2)CCN3C(=O)Cc2cc(F)cc(F)c2F)c2c(N)ncnc21 | 38% | 84% | 8% | 0% | 8% |
| O=c1[nH]ccc2nc(N[C@@H]3CCCNC3)nc(Nc3ccc(S(=O)(=O)N4CCOCC4)cc3)c12 | 100% | 20% | 86% | 65% | 49% |
| CC(C)Oc1ccc2c(-c3ccnc(Nc4ccc(N5CCN(C)CC5)cc4)n3)cnn2n1 | 14% | 6.7% | 7.1% | 7.4% | 0% |
| Nc1nccc2scc(-c3ccc4c(c3)CCN4C(=O)Cc3ccccc3)c12 | 0% | 4% | 18% | 0% | 14% |
| Nc1ncc(-c2cccnc2)c2scc(-c3ccc4c(c3)CCN4C(=O)Cc3ccccc3)c12 | 44% | 70% | 28% | 19% | 22% |
| CC(C)c1nc(-c2cccc(NS(=O)(=O)c3ccccc3)c2)c(-c2ccnc(Nc3ccc4c(c3)CN(C)CC4)n2)s1 | 2.3% | 66% | 49% | 100% | 100% |
| COc1ccc(C2=C(Nc3cccc(C(=O)O)c3)C(=O)NC2=O)cc1 | 30% | 10% | 2% | 28% | 0% |
| Cc1ccccc1CC(=O)N1CCc2cc(-c3cn(C)c4ncnc(N)c34)ccc21 | 58% | 97% | 0% | 0% | 34% |
| c1ccc(-c2ccnc3[nH]ccc23)cc1 | 0% | 74% | 0% | 0% | 8% |
| COc1ccc(Nc2ncc(C#N)c(Nc3ccccc3C(N)=O)n2)cc1N1CCN(C)CC1 | 2.5% | 0.4% | 1.8% | 2.6% | 0% |
| COc1cccc(C2=C(Nc3cccc(O)c3)C(=O)NC2=O)c1 | 0% | 0% | 15% | 7% | 2% |
| COc1cccc(CC(=O)N2CCc3cc(-c4cn(C)c5ncnc(N)c45)ccc32)c1 | 49% | 74% | 25% | 11% | 24% |
| Cn1cc(-c2cnc(N)c3c(-c4ccc5c(c4)CCN5C(=O)Cc4ccccc4)csc23)cn1 | 47% | 28% | 0% | 0% | 5% |
| O=C1NC(=O)C(c2ccccc2Cl)=C1Nc1cccc(Cl)c1 | 0% | 10% | 20% | 16% | 7% |
| Cn1cc(-c2ccc3c(c2)CCN3C(=O)Cc2cccc(F)c2)c2c(N)ncnc21 | 8% | 73% | 0% | 0% | 28% |
| COc1cccc(C2=C(Nc3ccc(Cl)c(C(=O)O)c3)C(=O)NC2=O)c1 | 27% | 0% | 0% | 0% | 3% |
| Nc1ncc(-c2cn[nH]c2)c2scc(-c3ccc4c(c3)CCN4C(=O)Cc3ccccc3)c12 | 87% | 85% | 0% | 0% | 21% |
| CN(C)CCNS(=O)(=O)c1ccc(-c2ccnc3[nH]ccc23)cc1 | 0% | 0% | 0% | 0% | 1% |
| NCCNS(=O)(=O)c1ccc(-c2ccnc3[nH]ccc23)cc1 | 24% | 0% | 22% | 0% | 44% |
| COc1cccc(C2=C(Nc3cccc(Cl)c3)C(=O)NC2=O)c1 | 0% | 13% | 1% | 5% | 0% |
| Cn1cc(-c2ccc3c(c2)CCN3C(=O)Cc2cccc(C(F)(F)F)c2)c2c(N)ncnc21 | 14% | 15% | 8% | 11% | 0% |
| Cn1cc(-c2ccc3c(c2)CCN3C(=O)Cc2cccc(Cl)c2)c2c(N)ncnc21 | 0% | 66% | 18% | 0% | 32% |
| CS(=O)(=O)Nc1ccc(-c2ccnc3[nH]ccc23)cc1 | 17% | 0% | 14% | 10% | 2% |
| CC(C)c1nc(-c2cccc(NS(=O)(=O)c3c(F)cccc3F)c2F)c(-c2ccnc(Nc3ccc(N4CCOCC4)nc3)n2)s1 | 1.4% | 0.9% | 6.4% | 7.1% | 24% |
| Cn1cc(-c2ccc3c(c2)CCN3C(=O)Cc2cc(F)cc(C(F)(F)F)c2)c2c(N)ncnc21 | 8% | 18% | 25% | 0% | 0% |
